Results: publication PMC5015216, “Change in decay rates of dioxin-like compounds in Yusho patients” (Environmental Health, 2016)
Read-outs that look alike come from different tables or passages of the source.

What was measured:
[1] = cited from earlier work
[2] = Longitudinal blood concentration / body burden in Yusho cohort 2002-2010, second-order regression of log body burden; type: in vivo, human (Yusho patients)
Description: The subjects were 354 patients whose blood concentration of 2,3,4,7,8-PeCDF had been measured three or more times at annual Yusho medical checkups between 2002 and 2010, i.e., 34–42 years since exposure, and for whom the period from the first to last measurement was over 4 years. We examined two chemicals: 2,3,4,7,8-PeCDF, which is the causative chemical, and octachlorodibenzodioxin (OCDD), which is a chemical found in Yusho patients but less commonly in the general public. This research was approved by Nara Medical University Ethics Committee (No. 281–2).
For the logarithm of body burden, which was calculated from concentration and weight, we examined the second derivative by second-order regression. The body burden Cit of patient i at time t is given by:1 logCit=βi+α1t+α2t^2+γ1w1it+γ2w2it
where t is the time, with t = 0 denoting 2006 (middle of the observation period), α2 is the coefficient for a second-order derivative, α1 is the first-order derivative at time t = 0, βi is the reference value for each individual, W1it is the weight and W2it is the lipid in blood (%) of patient i at time t, and γj is the coefficient for weight and lipid in blood. Aylward et al. used an estimate of body fat as volume of distribution, but we used weight and lipid in blood.
We combined all observed concentrations into equation (2):2 y=X⋅β+T⋅α+W⋅γ+ε
where y is the vector of the logarithm of dioxins and dioxin-like compounds in blood lipid concentration, Xβ is the base concentration for each patient, Tα is the change in time, Wγ is an adjustment term according to weight and lipid in blood, and ε is an observation error. X is a matrix with the total number of measurements rows and number of patient columns. T is a matrix with the total number of measurement rows and two columns, second-order and first-order for time. W is the matrix with the total number of measurement rows and two columns, weight and lipid. Equation (3) is a matrix form:3 y=XTWβαγ+ε
By solving multiple linear regressions with the lm function in R, we could estimate first- and second-order derivatives. It was assumed that patients in the same group had same trend with regard to time. […] For the case of one patient and no second-order coefficient measurements, equation (3) equals leads to an equation for estimation of decay rate:4 ka=lnCt2−lnCt1/Δt
We estimated the first- and second-order coefficients, equivalent to the decay rate and change in decay rate, for OCDD and 2,3,4,7,8-PeCDF for each patient group shown in Table 1.

[3] = patient group 2,3,4,7,8-PeCDF concentration range 0–10 pg/g lipid
[4] = patient group concentration range 0–10 pg/g lipid
[5] = patient group concentration range 10–20 pg/g lipid
[6] = patient group concentration range 20–50 pg/g lipid
[7] = patient group concentration range 50–100 pg/g lipid
[8] = patient group concentration range >100 pg/g lipid

Row | SMILES | apparent half-life ([1]; Yusho patients with blood 2,3,4,7,8-PeCDF ≥50 pg/g lipid, first of two groups) | change in blood levels over time ([1]; Yusho patients with blood 2,3,4,7,8-PeCDF ≥50 pg/g lipid, second of two groups) | apparent half-life ([1]; Yusho patients, group that became larger since medical checkups began) | apparent half-life ([1]; Yusho patients, group that became smaller since medical checkups began) | Second-order coefficient (equivalent to minus change in apparent elimination rate in 2006) [2, 3] | First-order coefficient (equivalent to minus apparent elimination rate) [2, 4] | First-order coefficient (equivalent to minus apparent elimination rate) [2, 5] | Second-order coefficient (equivalent to minus change in apparent elimination rate in 2006) [2, 5] | First-order coefficient (equivalent to minus apparent elimination rate) [2, 6] | Second-order coefficient (equivalent to minus change in apparent elimination rate in 2006) [2, 6] | First-order coefficient (equivalent to minus apparent elimination rate) [2, 7] | Second-order coefficient (equivalent to minus change in apparent elimination rate in 2006) [2, 7] | First-order coefficient (equivalent to minus apparent elimination rate) [2, 8] | Second-order coefficient (equivalent to minus change in apparent elimination rate in 2006) [2, 8]
1 | Clc1cc2oc3c(Cl)c(Cl)c(Cl)cc3c2cc1Cl [2,3,4,7,8-PeCDF, 2,3,4,7,8-pentachlorodibenzofuran] | ≈ 10 years | no reduction | near infinite | around 10 years | −0.000596 | −0.004032 | −0.000462 | 0.000464 | 0.001669 | 0.000643 | −0.005452 | 0.002124 | −0.008294 | 0.001436
2 | Clc1c(Cl)c(Cl)c2c(c1Cl)Oc1c(Cl)c(Cl)c(Cl)c(Cl)c1O2 [OCDD, octachlorodibenzodioxin] | – | – | – | – | −0.006366 | −0.01433 | −0.01954 | −0.003289 | −0.02054 | −0.001897 | −0.01224 | −0.002991 | −0.009034 | −0.004341
